In the kinase profiling compilation of Christmann-Franck et al. (2016):

Key:
Assay in all cases: KINOMEscan competition binding
Conditions in all cases: compound 10.0 µM
ABL2 (human) = ABL2 (human) (UniProt P42684)
ACVR1B (human) = ACVR1B (human) (UniProt P36896)
ACVR2A (human) = ACVR2A (human) (UniProt P27037)
ALK (human) = ALK (human) (UniProt Q9UM73)
CAMK4 (human) = CAMK4 (human) (UniProt Q16566)
CDK16 (human) = CDK16 (human) (UniProt Q00536)
CDK17 (human) = CDK17 (human) (UniProt Q00537)
CLK2 (human) = CLK2 (human) (UniProt P49760)
CRK2 (P.falciparum) = CRK2 (P.falciparum) (UniProt P61075)
CSNK1A1 (human) = CSNK1A1 (human) (UniProt P48729)
CSNK1A1 (human), sequence (P48729 whole entry, looked up): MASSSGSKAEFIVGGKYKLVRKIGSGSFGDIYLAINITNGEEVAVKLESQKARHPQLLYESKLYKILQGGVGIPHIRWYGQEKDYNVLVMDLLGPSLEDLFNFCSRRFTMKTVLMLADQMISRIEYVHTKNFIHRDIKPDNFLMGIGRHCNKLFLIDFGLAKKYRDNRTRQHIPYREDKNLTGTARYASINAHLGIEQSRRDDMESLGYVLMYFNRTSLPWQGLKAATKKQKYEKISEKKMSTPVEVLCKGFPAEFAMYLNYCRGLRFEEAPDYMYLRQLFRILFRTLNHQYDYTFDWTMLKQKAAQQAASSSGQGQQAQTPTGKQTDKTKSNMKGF

[1] = system: EGFR (human), P00533 [T790M/L858R]
EPHA1 (human) = EPHA1 (human) (UniProt P21709)
EPHB1 (human) = EPHB1 (human) (UniProt P54762)
EPHB1 (human), sequence (P54762 whole entry, looked up): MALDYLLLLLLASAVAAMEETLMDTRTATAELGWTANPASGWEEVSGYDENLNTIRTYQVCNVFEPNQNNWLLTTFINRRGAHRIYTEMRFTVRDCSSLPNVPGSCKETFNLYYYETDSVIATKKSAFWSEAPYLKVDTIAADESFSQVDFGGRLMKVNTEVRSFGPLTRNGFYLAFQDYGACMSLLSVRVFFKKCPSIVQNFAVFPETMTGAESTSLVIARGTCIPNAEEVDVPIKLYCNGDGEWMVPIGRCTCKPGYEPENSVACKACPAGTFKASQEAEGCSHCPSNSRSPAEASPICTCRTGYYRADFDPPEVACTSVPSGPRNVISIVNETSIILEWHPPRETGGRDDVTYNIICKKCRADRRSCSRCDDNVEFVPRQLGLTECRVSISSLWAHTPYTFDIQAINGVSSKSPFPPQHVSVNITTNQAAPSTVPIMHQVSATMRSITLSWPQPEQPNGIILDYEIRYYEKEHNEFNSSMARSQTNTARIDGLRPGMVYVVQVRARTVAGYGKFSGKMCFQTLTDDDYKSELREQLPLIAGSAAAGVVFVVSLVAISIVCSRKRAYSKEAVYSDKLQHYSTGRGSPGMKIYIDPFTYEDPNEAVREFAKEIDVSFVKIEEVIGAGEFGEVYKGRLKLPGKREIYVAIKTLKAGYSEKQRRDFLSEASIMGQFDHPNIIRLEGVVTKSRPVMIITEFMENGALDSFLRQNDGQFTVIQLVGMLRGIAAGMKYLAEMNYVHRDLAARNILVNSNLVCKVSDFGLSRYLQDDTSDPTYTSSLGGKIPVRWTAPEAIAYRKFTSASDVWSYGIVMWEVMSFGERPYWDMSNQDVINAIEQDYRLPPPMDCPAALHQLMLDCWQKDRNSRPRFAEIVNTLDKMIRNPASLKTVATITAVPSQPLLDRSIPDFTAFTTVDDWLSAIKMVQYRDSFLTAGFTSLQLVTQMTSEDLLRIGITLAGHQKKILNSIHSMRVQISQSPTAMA

EPHB4 (human) = EPHB4 (human) (UniProt P54760)
ERBB2 (human) = ERBB2 (human) (UniProt P04626)
LATS1 (human) = LATS1 (human) (UniProt O95835)
LATS1 (human), sequence (O95835 whole entry, looked up): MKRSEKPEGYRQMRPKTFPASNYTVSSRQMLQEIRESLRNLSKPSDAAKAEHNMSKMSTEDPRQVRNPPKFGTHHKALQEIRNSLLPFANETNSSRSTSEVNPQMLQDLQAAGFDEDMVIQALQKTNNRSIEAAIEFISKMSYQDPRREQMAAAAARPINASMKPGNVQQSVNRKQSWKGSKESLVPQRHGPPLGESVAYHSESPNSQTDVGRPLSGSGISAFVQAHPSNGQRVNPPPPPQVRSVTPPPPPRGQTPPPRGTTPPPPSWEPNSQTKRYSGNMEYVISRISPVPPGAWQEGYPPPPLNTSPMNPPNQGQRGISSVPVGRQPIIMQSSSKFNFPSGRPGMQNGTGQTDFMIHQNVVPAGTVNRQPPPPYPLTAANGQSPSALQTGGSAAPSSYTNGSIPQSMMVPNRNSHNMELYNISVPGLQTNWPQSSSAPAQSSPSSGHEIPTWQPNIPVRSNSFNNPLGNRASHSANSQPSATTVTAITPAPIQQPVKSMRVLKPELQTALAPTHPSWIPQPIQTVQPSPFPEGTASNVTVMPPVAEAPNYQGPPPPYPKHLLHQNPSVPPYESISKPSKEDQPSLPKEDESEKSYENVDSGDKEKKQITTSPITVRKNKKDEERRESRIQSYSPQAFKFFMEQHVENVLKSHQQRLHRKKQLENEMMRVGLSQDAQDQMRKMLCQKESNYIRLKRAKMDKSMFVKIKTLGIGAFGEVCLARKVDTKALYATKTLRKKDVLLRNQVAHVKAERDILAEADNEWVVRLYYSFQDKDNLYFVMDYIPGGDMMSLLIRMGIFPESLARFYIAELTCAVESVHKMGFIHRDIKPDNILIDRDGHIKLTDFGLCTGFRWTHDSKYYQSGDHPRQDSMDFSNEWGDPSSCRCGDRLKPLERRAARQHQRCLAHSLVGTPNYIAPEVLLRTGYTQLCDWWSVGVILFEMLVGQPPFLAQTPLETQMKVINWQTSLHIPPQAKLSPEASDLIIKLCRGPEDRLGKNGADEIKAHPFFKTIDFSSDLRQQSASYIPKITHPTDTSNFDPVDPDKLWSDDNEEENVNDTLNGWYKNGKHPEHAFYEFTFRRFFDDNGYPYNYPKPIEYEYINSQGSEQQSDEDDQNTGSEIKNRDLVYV

LRRK2 (human) = LRRK2 (human) (UniProt Q5S007)
MAK (human) = MAK (human) (UniProt P20794)
MAP2K6 (human) = MAP2K6 (human) (UniProt P52564)
MAP2K6 (human), sequence (P52564 whole entry, looked up): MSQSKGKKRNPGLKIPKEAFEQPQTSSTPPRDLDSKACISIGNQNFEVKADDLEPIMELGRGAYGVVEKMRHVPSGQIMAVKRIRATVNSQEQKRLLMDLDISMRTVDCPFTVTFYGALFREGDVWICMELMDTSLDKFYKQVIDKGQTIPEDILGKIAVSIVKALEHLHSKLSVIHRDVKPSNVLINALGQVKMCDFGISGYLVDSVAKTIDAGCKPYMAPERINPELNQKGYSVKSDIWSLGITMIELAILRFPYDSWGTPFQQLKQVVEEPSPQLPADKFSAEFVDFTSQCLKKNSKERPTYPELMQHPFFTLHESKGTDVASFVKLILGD

MAP3K12 (human) = MAP3K12 (human) (UniProt Q12852)
MAP3K2 (human) = MAP3K2 (human) (UniProt Q9Y2U5)
MARK2 (human) = MARK2 (human) (UniProt Q7KZI7)
MINK1 (human) = MINK1 (human) (UniProt Q8N4C8)
MST4 (human) = MST4 (human) (UniProt Q9P289)
NEK5 (human) = NEK5 (human) (UniProt Q6P3R8)
NEK9 (human) = NEK9 (human) (UniProt Q8TD19)
NIM1 (human) = NIM1 (human) (UniProt Q8IY84)
PIP4K2C (human) = PIP4K2C (human) (UniProt Q8TBX8)
PKMYT1 (human) = PKMYT1 (human) (UniProt Q99640)
PRKCD (human) = PRKCD (human) (UniProt Q05655)
PRPF4B (human) = PRPF4B (human) (UniProt Q13523)
RIPK4 (human) = RIPK4 (human) (UniProt P57078)
RPS6KA1 KD1 (human) = RPS6KA1 KD1 (human) (UniProt Q15418)
SLK (human) = SLK (human) (UniProt Q9H2G2)
TAOK2 (human) = TAOK2 (human) (UniProt Q9UL54)
TAOK2 (human), sequence (Q9UL54 whole entry, looked up): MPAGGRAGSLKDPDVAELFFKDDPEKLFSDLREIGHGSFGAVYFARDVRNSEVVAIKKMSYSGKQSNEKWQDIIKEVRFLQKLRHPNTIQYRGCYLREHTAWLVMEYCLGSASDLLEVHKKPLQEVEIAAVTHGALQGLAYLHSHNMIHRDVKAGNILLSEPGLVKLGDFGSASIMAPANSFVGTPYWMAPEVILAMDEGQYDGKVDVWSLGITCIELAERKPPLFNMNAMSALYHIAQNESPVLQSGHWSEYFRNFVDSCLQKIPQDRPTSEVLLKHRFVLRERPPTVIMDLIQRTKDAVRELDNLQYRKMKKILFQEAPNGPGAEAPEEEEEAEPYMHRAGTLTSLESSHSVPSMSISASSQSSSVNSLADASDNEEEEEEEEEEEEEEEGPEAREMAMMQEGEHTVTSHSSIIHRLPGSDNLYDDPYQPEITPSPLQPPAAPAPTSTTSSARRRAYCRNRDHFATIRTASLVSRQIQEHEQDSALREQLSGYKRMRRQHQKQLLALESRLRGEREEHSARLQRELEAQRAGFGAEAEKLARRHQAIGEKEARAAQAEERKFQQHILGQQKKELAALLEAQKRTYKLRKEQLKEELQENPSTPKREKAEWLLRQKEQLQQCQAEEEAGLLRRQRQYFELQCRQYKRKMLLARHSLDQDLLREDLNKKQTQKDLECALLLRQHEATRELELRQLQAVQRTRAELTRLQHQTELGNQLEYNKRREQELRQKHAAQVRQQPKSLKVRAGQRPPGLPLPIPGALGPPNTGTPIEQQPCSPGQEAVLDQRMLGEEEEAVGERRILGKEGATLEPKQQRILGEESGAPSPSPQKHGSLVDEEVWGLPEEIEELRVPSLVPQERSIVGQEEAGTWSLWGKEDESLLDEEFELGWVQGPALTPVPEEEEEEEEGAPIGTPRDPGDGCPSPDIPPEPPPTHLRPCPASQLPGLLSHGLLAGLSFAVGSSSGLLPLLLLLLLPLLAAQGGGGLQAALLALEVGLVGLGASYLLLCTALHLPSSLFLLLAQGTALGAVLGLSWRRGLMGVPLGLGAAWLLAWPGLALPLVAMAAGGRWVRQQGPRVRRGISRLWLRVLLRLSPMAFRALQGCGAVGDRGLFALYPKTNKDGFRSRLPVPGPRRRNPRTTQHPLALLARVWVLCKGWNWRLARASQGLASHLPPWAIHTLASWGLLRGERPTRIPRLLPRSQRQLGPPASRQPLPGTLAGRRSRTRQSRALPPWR

TEK (human) = TEK (human) (UniProt Q02763)
TNK1 (human) = TNK1 (human) (UniProt Q13470)
[2] = target: TYK2 JH1 catalytic (human) (UniProt P29597)
TYRO3 (human) = TYRO3 (human) (UniProt Q06418)
YES1 (human) = YES1 (human) (UniProt P07947)

ACVR1B (human), sequence (P36896 whole entry, looked up): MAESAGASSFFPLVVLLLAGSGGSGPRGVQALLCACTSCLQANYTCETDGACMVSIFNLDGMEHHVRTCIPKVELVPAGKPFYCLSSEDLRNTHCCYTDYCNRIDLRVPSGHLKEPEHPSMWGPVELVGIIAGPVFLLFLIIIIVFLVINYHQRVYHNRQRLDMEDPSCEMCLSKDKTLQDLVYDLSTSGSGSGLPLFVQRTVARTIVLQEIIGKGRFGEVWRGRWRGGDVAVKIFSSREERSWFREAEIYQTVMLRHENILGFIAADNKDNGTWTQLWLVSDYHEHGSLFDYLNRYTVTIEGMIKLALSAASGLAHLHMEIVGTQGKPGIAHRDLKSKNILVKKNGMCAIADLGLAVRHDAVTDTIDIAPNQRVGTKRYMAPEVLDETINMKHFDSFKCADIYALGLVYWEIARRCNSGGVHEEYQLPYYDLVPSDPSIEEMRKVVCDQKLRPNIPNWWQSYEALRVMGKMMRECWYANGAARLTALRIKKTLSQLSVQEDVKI
CDK16 (human), sequence (Q00536 whole entry, looked up): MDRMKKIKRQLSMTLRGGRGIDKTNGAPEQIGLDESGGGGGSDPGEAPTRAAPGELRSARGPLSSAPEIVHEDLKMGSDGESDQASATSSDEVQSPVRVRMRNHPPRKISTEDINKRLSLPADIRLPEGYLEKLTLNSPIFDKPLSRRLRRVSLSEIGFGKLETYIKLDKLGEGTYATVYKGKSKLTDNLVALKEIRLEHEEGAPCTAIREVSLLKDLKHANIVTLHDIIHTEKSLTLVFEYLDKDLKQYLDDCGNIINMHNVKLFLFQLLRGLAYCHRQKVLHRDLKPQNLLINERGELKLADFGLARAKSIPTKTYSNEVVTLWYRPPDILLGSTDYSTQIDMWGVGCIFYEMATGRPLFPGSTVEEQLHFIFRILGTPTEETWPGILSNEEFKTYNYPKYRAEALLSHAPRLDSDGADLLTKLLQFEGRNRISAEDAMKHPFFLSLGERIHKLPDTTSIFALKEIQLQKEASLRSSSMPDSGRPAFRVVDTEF

| SMILES | kinase still bound, per cent of control (ABL2 (human)) [%] | kinase still bound, per cent of control (ACVR1B (human)) [%] | kinase still bound, per cent of control (ACVR2A (human)) [%] | kinase still bound, per cent of control (ALK (human)) [%] | kinase still bound, per cent of control (CAMK4 (human)) [%] | kinase still bound, per cent of control (CDK16 (human)) [%] | kinase still bound, per cent of control (CDK17 (human)) [%] | kinase still bound, per cent of control (CLK2 (human)) [%] | kinase still bound, per cent of control (CRK2 (P.falciparum)) [%] | kinase still bound, per cent of control (CSNK1A1 (human)) [%] | kinase still bound, per cent of control [1] [%] | kinase still bound, per cent of control (EPHA1 (human)) [%] | kinase still bound, per cent of control (EPHB1 (human)) [%] | kinase still bound, per cent of control (EPHB4 (human)) [%] | kinase still bound, per cent of control (ERBB2 (human)) [%] | kinase still bound, per cent of control (LATS1 (human)) [%] | kinase still bound, per cent of control (LRRK2 (human)) [%] | kinase still bound, per cent of control (MAK (human)) [%] | kinase still bound, per cent of control (MAP2K6 (human)) [%] | kinase still bound, per cent of control (MAP3K12 (human)) [%] | other results |
| --- | --- | --- | --- | --- | --- | --- | --- | --- | --- | --- | --- | --- | --- | --- | --- | --- | --- | --- | --- | --- | --- |
| COc1cc(C(=O)N2CCC(N3CCN(C)CC3)CC2)ccc1Nc1ncc2c(n1)N(C)c1ccccc1C(=O)N2C | 97 | 100 | 100 | 13 | 79 | 96 | 83 | 72 | 100 | 100 | 84 | 100 | 98 | 100 | 100 | 100 | 0 | 72 | 83 | 81 | kinase still bound, per cent of control (MAP3K2 (human)): 97%; kinase still bound, per cent of control (MARK2 (human)): 100%; kinase still bound, per cent of control (MINK1 (human)): 77%; kinase still bound, per cent of control (MST4 (human)): 95%; kinase still bound, per cent of control (NEK5 (human)): 100%; kinase still bound, per cent of control (NEK9 (human)): 100%; kinase still bound, per cent of control (NIM1 (human)): 100%; kinase still bound, per cent of control (PIP4K2C (human)): 40%; kinase still bound, per cent of control (PKMYT1 (human)): 80%; kinase still bound, per cent of control (PRKCD (human)): 75%; kinase still bound, per cent of control (PRPF4B (human)): 93%; kinase still bound, per cent of control (RIPK4 (human)): 74%; kinase still bound, per cent of control (RPS6KA1 KD1 (human)): 73%; kinase still bound, per cent of control (SLK (human)): 100%; kinase still bound, per cent of control (TAOK2 (human)): 65%; kinase still bound, per cent of control (TEK (human)): 100%; kinase still bound, per cent of control (TNK1 (human)): 2.8%; kinase still bound, per cent of control [2]: 52%; kinase still bound, per cent of control (TYRO3 (human)): 100%; kinase still bound, per cent of control (YES1 (human)): 100% |
| CN(C)C/C=C/C(=O)Nc1ccc(C(=O)Nc2cccc(Nc3nccc(-c4cccnc4)n3)c2)cc1 | 100 | 86 | 53 | 100 | 100 | 91 | 92 | 2.2 | 100 | 27 | 100 | 76 | 100 | 100 | 97 | 100 | 100 | 100 | 47 | 74 | kinase still bound, per cent of control (MAP3K2 (human)): 79%; kinase still bound, per cent of control (MARK2 (human)): 73%; kinase still bound, per cent of control (MINK1 (human)): 50%; kinase still bound, per cent of control (MST4 (human)): 100%; kinase still bound, per cent of control (NEK5 (human)): 2.2%; kinase still bound, per cent of control (NEK9 (human)): 22%; kinase still bound, per cent of control (NIM1 (human)): 94%; kinase still bound, per cent of control (PIP4K2C (human)): 0.8%; kinase still bound, per cent of control (PKMYT1 (human)): 100%; kinase still bound, per cent of control (PRKCD (human)): 100%; kinase still bound, per cent of control (PRPF4B (human)): 100%; kinase still bound, per cent of control (RIPK4 (human)): 33%; kinase still bound, per cent of control (RPS6KA1 KD1 (human)): 91%; kinase still bound, per cent of control (SLK (human)): 98%; kinase still bound, per cent of control (TAOK2 (human)): 70%; kinase still bound, per cent of control (TEK (human)): 94%; kinase still bound, per cent of control (TNK1 (human)): 20%; kinase still bound, per cent of control [2]: 15%; kinase still bound, per cent of control (TYRO3 (human)): 100%; kinase still bound, per cent of control (YES1 (human)): 100% |
| COc1ccc(N(C(=O)Oc2c(C)cccc2C)c2ccnc(Nc3ccc(N4CCN(C)CC4)cc3)n2)c(OC)c1 | 0.1 | 1 | 0.75 | 0.35 | 100 | 98 | 80 | 78 | 100 | 71 | 14 | 0 | 0 | 0 | 15 | 78 | 78 | 69 | 66 | 73 | kinase still bound, per cent of control (MAP3K2 (human)): 2.2%; kinase still bound, per cent of control (MARK2 (human)): 87%; kinase still bound, per cent of control (MINK1 (human)): 14%; kinase still bound, per cent of control (MST4 (human)): 33%; kinase still bound, per cent of control (NEK5 (human)): 85%; kinase still bound, per cent of control (NEK9 (human)): 100%; kinase still bound, per cent of control (NIM1 (human)): 100%; kinase still bound, per cent of control (PIP4K2C (human)): 100%; kinase still bound, per cent of control (PKMYT1 (human)): 100%; kinase still bound, per cent of control (PRKCD (human)): 9.8%; kinase still bound, per cent of control (PRPF4B (human)): 55%; kinase still bound, per cent of control (RIPK4 (human)): 92%; kinase still bound, per cent of control (RPS6KA1 KD1 (human)): 58%; kinase still bound, per cent of control (SLK (human)): 0.1%; kinase still bound, per cent of control (TAOK2 (human)): 2.4%; kinase still bound, per cent of control (TEK (human)): 0.3%; kinase still bound, per cent of control (TNK1 (human)): 0%; kinase still bound, per cent of control [2]: 45%; kinase still bound, per cent of control (TYRO3 (human)): 18%; kinase still bound, per cent of control (YES1 (human)): 0.05% |
